According to PubChem BioAssay AID1963433 (Molecular Pharmacology Branch, DTP, NCI, 2024):

System: 772245-204-R-J1-PDC complex spheroid growth
Test: Anticancer human tumor 772245-204-R-J1-PDC patient-derived rhabdomyosarcoma cell line growth inhibition [Asc]
Conditions: for IC50: curve of first compound; for viability, T/C: stronger effect = lower value
Method: Multicellular complex tumor spheroid response to apoptosis pathway targeting inhibitors Alrizomadlin, Pelcitoclax, and Dasminapant in combination with a variety of drugs and investigational agents in selected tumor cell lines
The MDM2 inhibitor alrizomadlin, the Bcl-2/Bcl-xL inhibitor pelcitoclax, and the IAPs inhibitor dasminapant were evaluated both individually and in combination with standard of care and investigational anticancer small molecules within a complex spheroid model of solid tumors. . Complex spheroids include a stromal component modeled by human endothelial cells (HUVEC) and fibroblasts modeled by human mesenchymal stem cells (MSCs). The concentration ranges selected for each drug and investigational agent were based upon clinically achievable concentrations if the clinical Cmax of the agent was known.
Compounds. The drugs and investigational agents: alrizomadlin (APG-115; NSC831270), pelcitoclax (APG-1252; NSC835773), dasminapant (APG-1387;NSC834197), TAK-243 (NSC785004), copanlisib (NSC809693), olaparib (NSC753686), talazoparib (NSC767125), cobimetinib (NSC 768068), eltanexor (KPT-8602, NSC 794443), abemaciclib (NSC 768073), sotorasib (NSC818433), adagrasib (NSC 831453), MRTX-1133 (NSC 836407), Iadademestat (ORY1001, NSC 806812), and RMC-4630 (NSC839698), were obtained from the NCI Developmental Therapeutics Program Chemical Repository. The FDA-approved anticancer drug set is available from the Developmental Therapeutics Program at https://dtp.cancer.gov/organization/dscb/obtaining/available plates.htm. […] The stock solutions were prepared in dimethyl sulfoxide (DMSO, Sigma-Aldrich, St. Louis, MO, cat. D2650) at 800-fold the tested concentration and stored at -70 degrees C prior to their use. All drugs and investigational agents were tested over a range starting from a high concentration at or near the clinical Cmax and decreasing in half-log increments. If the clinical Cmax for an agent had not been determined, the highest concentration tested was 10 microM.
The patient-derived cancer (PDC) cell lines include five colon adenocarcinomas: 186277-243-T-J2-PDC, 616215-338-R-J1-PDC, 439559-082-T-J2-PDC, 463943-066-T-J2-PDC, and 519858-162-T-J1-PDC; three pancreatic carcinomas: 323965-272-R-J2-PDC, 521955-158-R6-J3-PDC, and 521955-158-R2-J5-PDC; two uterine sarcomas: 327498-152-R-J2-PDC and 993429-296-R-J1-PDC; two rhabdomyosarcomas: 755483-174-R-J1-PDC and 772245-204-R-J1-PDC; two soft tissue sarcomas: 126254-015-R-J1-PDC and 494315-158-R-J1-PDC; two malignant fibrous histiocytomas: 317291-083-R-J1-PDC and 596521-263-R-J1-PDC; two breast carcinomas: 171881-019-R-J1-PDC and 885512-296-R-J2-PDC; and one ovarian carcinoma: 6556581-035-R-J-PDC were obtained from the NCI PDMR, (https://pdmr.cancer.gov). The established cell lines HSSY-2 synovial sarcoma (RRID:CVCL 8719), SYO-1 synovial sarcoma (RRID:CVCL_7146), MPNST malignant peripheral neural sheath tumor were obtained from the Sloan Kettering Institute. The following established cell lines were purchased from the American Type Culture Collection (ATCC, Manassas, VA), Sor the received from the NCI repository:, PANC-1 pancreatic carcinoma (CRL-1469, RRID:CVCL_0480), OVCAR-5 ovarian carcinoma (RRID:CVCL_1628), OVCAR-8 ovarian carcinoma (RRID:CVCL_1629), , MCF-7 breast carcinoma (CRL-12584, RRID:CVCL_0031), MDA-MB-231 breast carcinoma (CRL-12532, RRID:CVCL_0062), NCI-H1876 small cell lung carcinoma (CRL-5902, RRID:CVCL_1503), NCI-H510A small cell lung carcinoma (HTB-184, RRID:CVCL_1565), NCI-H1417 (CRL-5869, RRID:CVCL_1469), and NCI-H196 small cell lung carcinoma (CRL-5823, RRID:CVCL_1509). Dr. Peter Houghton (Greehey Children's Cancer Research Institute, University of Texas Health Science Center, San Antonio, TX) provided Rh-18 rhabdomyosarcoma (RRID:CVCL_1659). Pooled donor human umbilical vein endothelial cells (HUVEC, Lonza, cat. CC-2519) and human mesenchymal stem cells (hMSC, Lonza, cat. PT-2501) were purchased from Lonza (Walkersville, MD).
Cell Culture. […]
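Further: compound exposure lasted seven days.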
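Wherever viability, T/C is given: 100% = DMSO vehicle control viability.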

Work on `NC1CCC(NC2CC2c2ccccc2)CC1` (stereo not given) + CCN1C(C(=O)NC23CCC(C(=O)O)(CC2)CC3)C(c2cccc(Cl)c2F)C2(C(=O)Nc3cc(Cl)ccc32)C12CCCCC2 yielded an IC50 (second compound 0.03 µM) greater than 100 nM, an IC50 (second compound 0.0949 µM) greater than 100 nM and an IC50 (second compound 0.3 µM) greater than 100 nM. For the same molecule, the IC50 (second compound 0.949 µM) was greater than 100 nM, the IC50 (second compound 3 µM) was greater than 100 nM and the viability, T/C (second compound 0.03 µM, first compound 0.000316 µM) was 103%. The viability, T/C (second compound 0.03 µM, first compound 0.001 µM) was 94.6%, the viability, T/C (second compound 0.03 µM, first compound 0.00316 µM) was 100% and the viability, T/C (second compound 0.03 µM, first compound 0.01 µM) was 86.5%. The viability, T/C (second compound 0.03 µM, first compound 0.0316 µM) was 108%, the viability, T/C (second compound 0.03 µM, first compound 0.1 µM) was 98.1% and the viability, T/C (second compound 0.0949 µM, first compound 0.000316 µM) was 96.3%. For the same molecule, the viability, T/C (second compound 0.0949 µM, first compound 0.001 µM) was 96.3%, the viability, T/C (second compound 0.0949 µM, first compound 0.00316 µM) was 90.3% and the viability, T/C (second compound 0.0949 µM, first compound 0.01 µM) was 92.5%. For the same molecule, the viability, T/C (second compound 0.0949 µM, first compound 0.0316 µM) was 84.9%, the viability, T/C (second compound 0.0949 µM, first compound 0.1 µM) was 93.5% and the viability, T/C (second compound 0.3 µM, first compound 0.000316 µM) was 106%. The viability, T/C (second compound 0.3 µM, first compound 0.001 µM) was 80.2%, the viability, T/C (second compound 0.3 µM, first compound 0.00316 µM) was 101% and the viability, T/C (second compound 0.3 µM, first compound 0.01 µM) was 85.5%. It also gave a viability, T/C (second compound 0.3 µM, first compound 0.0316 µM) of 111%, a viability, T/C (second compound 0.3 µM, first compound 0.1 µM) of 89.8% and a viability, T/C (second compound 0.949 µM, first compound 0.000316 µM) of 95.2%. It also gave a viability, T/C (second compound 0.949 µM, first compound 0.001 µM) of 80.8%, a viability, T/C (second compound 0.949 µM, first compound 0.00316 µM) of 83.6% and a viability, T/C (second compound 0.949 µM, first compound 0.01 µM) of 86.9%. The viability, T/C (second compound 0.949 µM, first compound 0.0316 µM) was 95.1%, the viability, T/C (second compound 0.949 µM, first compound 0.1 µM) was 96.3% and the viability, T/C (second compound 3 µM, first compound 0.000316 µM) was 70.2%. It also gave a viability, T/C (second compound 3 µM, first compound 0.001 µM) of 65.8%, a viability, T/C (second compound 3 µM, first compound 0.00316 µM) of 73.2% and a viability, T/C (second compound 3 µM, first compound 0.01 µM) of 77.9%. It also gave a viability, T/C (second compound 3 µM, first compound 0.0316 µM) of 73.1% and a viability, T/C (second compound 3 µM, first compound 0.1 µM) of 75.4%.

Molecule `NC1CCC(NC2CC2c2ccccc2)CC1` (stereo not given) + CNC(C)C(=O)NC1CN(S(=O)(=O)c2cccc(S(=O)(=O)N3CCC4CCC(C(=O)NC(c5ccccc5)c5ccccc5)N4C(=O)C(NC(=O)C(C)NC)C3)c2)CCC2CCC(C(=O)NC(c3ccccc3)c3ccccc3)N2C1=O has an IC50 (second compound 0.01 µM) greater than 100 nM, an IC50 (second compound 0.0316 µM) greater than 100 nM and an IC50 (second compound 0.1 µM) greater than 100 nM. It also gave an IC50 (second compound 0.316 µM) greater than 100 nM, an IC50 (second compound 1 µM) greater than 100 nM and a viability, T/C (second compound 0.01 µM, first compound 0.000316 µM) of 111%. The viability, T/C (second compound 0.01 µM, first compound 0.001 µM) was 104%, the viability, T/C (second compound 0.01 µM, first compound 0.00316 µM) was 91.6% and the viability, T/C (second compound 0.01 µM, first compound 0.01 µM) was 105%. For the same molecule, the viability, T/C (second compound 0.01 µM, first compound 0.0316 µM) was 98.5%, the viability, T/C (second compound 0.01 µM, first compound 0.1 µM) was 89.5% and the viability, T/C (second compound 0.0316 µM, first compound 0.000316 µM) was 85.7%. For the same molecule, the viability, T/C (second compound 0.0316 µM, first compound 0.001 µM) was 91.9%, the viability, T/C (second compound 0.0316 µM, first compound 0.00316 µM) was 88.5% and the viability, T/C (second compound 0.0316 µM, first compound 0.01 µM) was 94.8%. The viability, T/C (second compound 0.0316 µM, first compound 0.0316 µM) was 90.7%, the viability, T/C (second compound 0.0316 µM, first compound 0.1 µM) was 88% and the viability, T/C (second compound 0.1 µM, first compound 0.000316 µM) was 92%. The viability, T/C (second compound 0.1 µM, first compound 0.001 µM) was 103%, the viability, T/C (second compound 0.1 µM, first compound 0.00316 µM) was 87.5% and the viability, T/C (second compound 0.1 µM, first compound 0.01 µM) was 88.4%. It also gave a viability, T/C (second compound 0.1 µM, first compound 0.0316 µM) of 90.9%, a viability, T/C (second compound 0.1 µM, first compound 0.1 µM) of 82.2% and a viability, T/C (second compound 0.316 µM, first compound 0.000316 µM) of 97.1%. It also gave a viability, T/C (second compound 0.316 µM, first compound 0.001 µM) of 90.1%, a viability, T/C (second compound 0.316 µM, first compound 0.00316 µM) of 102% and a viability, T/C (second compound 0.316 µM, first compound 0.01 µM) of 86.9%. For the same molecule, the viability, T/C (second compound 0.316 µM, first compound 0.0316 µM) was 88.3%, the viability, T/C (second compound 0.316 µM, first compound 0.1 µM) was 98.7% and the viability, T/C (second compound 1 µM, first compound 0.000316 µM) was 100%. For the same molecule, the viability, T/C (second compound 1 µM, first compound 0.001 µM) was 88.1%, the viability, T/C (second compound 1 µM, first compound 0.00316 µM) was 92.9% and the viability, T/C (second compound 1 µM, first compound 0.01 µM) was 86.6%. For the same molecule, the viability, T/C (second compound 1 µM, first compound 0.0316 µM) was 78.9% and the viability, T/C (second compound 1 µM, first compound 0.1 µM) was 91.2%.
